The values below come from patent US9926332B2, “Dihydro-oxazinobenzodiazepine compounds, a process for their preparation and pharmaceutical compositions containing them” (priority 2014, dated 2018).

Read-outs that look alike come from different tables or passages of the source. Bounds are passed on as bounds.

The subject of test [1] is mice. In words: Light-dark test in mice. The class given is in vivo. As to conditions: i.p. administration, FIG. 5. Here is the method:
FIG. 5. […] Mean values±S.E.M. (n=11-20/group) Student's t-test: vehicle vs. Diazepam-treated group (*p<0.05) Dunnett test following ANOVA: vehicle-treated vs. compound-treated groups (#:p<0.05).
The light-dark apparatus contains a light (brightly illuminated) and a dark compartment. A small opening connects the two parts. During the 5 minutes test mice were placed individually in the light compartment and allowed to explore the entire apparatus. The activity of animals was measured automatically by interruptions of horizontal and vertical infrared beams. An increase of time spent in the light area (increase in light horizontal time) is interpreted as an anxiolytic effect. The results are illustrated in FIG. 5.

For test [2], the target named is T1, α2 subunit of the human GABAA receptor in association with the beta2 (short) and gamma2 (long) subunits (Homo sapiens, UniProt P18507+P47869+P47870).
T1 construct: expressed in transfected cells; host or cells: HEK-293
Description: GABA-induced membrane potential response (FMP dye, FlexStation3) in HEK-293 cells expressing GABAA α2. The class given is cell-based. The method, then: (§1) The compounds are tested on HEK-293 (Human Embryonic Kidney) cells stably expressing the […] or the α5 subunit of the human GABAA receptor in association with the beta2 (short) and gamma2 (long) subunits, thus forming heteropentameric GABAA receptors. The cells are maintained in the presence of a selection of three antibiotics—neomycin, zeocin and puromycin—in a Dulbecco medium (DMEM) containing 10% (v/v) foetal bovine serum The membrane potential is monitored using the fluorescent blue FMP dye (Molecular Devices), following the instructions of the manufacturer. On the day before the experiment, the cells are transferred to 96-well plates (in a density of 50,000 cells/well). 18-24 h later the cells are washed and incubated with the compounds under test plus the FMP dye. Recording of the fluorescence signal in a FlexStation3 plate reader (Molecular Devices, USA) is started 40 min later. After 30 sec of monitoring baseline fluorescence GABA is added to evoke a fluorescent signal reporting depolarisation of the membrane potential across the plasma membrane. The GABA induced responses are recorded for 90 seconds. Data are calculated by subtracting the average baseline value and computing the area under the curve of the fluorescence signal induced by GABA. The IC50 values for α5 and the EC50 values for α2 of the tested compounds are determined from log concentration versus response curves obtained by non-linear regression using SoftMax Pro software (Molecular Devices, USA).

For test [3], the target named is T2, α5 subunit of the human GABAA receptor in association with the beta2 (short) and gamma2 (long) subunits (Homo sapiens, UniProt P18507+P31644+P47870).
T2 construct: expressed in transfected cells; host or cells: HEK-293
Description: GABA-induced membrane potential response (FMP dye, FlexStation3) in HEK-293 cells expressing GABAA α5. Type of test: cell-based. Here is the method: as §1

Test [4] has as its target T3, α1 subunit of the human GABAA receptor in association with the beta2 (short) and gamma2 (long) subunits (Homo sapiens, UniProt P14867+P18507+P47870).
T3 construct: expressed in transfected cells; host or cells: HEK-293
Description: GABA-induced membrane potential response (FMP dye, FlexStation3) in HEK-293 cells expressing GABAA α1. Type of test: cell-based.

The subject of test [5] is mice. Description: Novel object recognition test in mice. As to conditions: i.p. administration, FIG. 1 and FIG. 2. Type of test: in vivo. The source says: FIG. 1 and FIG. 2. […] Mean values±S.E.M. (n=8-11/group); Dunnett test following ANOVA (*:p<0.05, **:p<0.01, ***:p<0.001). Discrimination index: Duration of new object exploration (s)−Duration of familiar object exploration (s)/Duration of new object exploration (s)+Duration of familiar object exploration (s).
The novel object recognition test evaluates the ability of mice to detect novelty in an otherwise familiar environment. Subsequent a short exploratory period, mice are unable to discriminate between the familiar and the new object 24 hours later. […] Enhancement of the discrimination index is considered as a procognitive effect. The results are illustrated in FIG. 1 and FIG. 2.

Test [6] has as its system rats. In words: Social interaction test in rats. The class given is in vivo. To be noted: i.p. administration, FIG. 6. The text has this:
FIG. 6. […] Mean values±S.E.M. (n=12/group) Kruskal-Wallis ANOVA followed by Mann-Whitney U test: control vs. compound-treated groups (**:p<0.05).
The social interaction test is a model used to measure anxiolytic or anxiogenic behaviour in rodents. When a pair of unfamiliar rats is placed together in the open field the animals show specific social behaviours (sniffing, following, grooming, crawling over and under other rats). Anxiolytic compounds such as benzodiazepines increase in the time spent with social interactions. In our experiment rats were submitted to the social interaction test of anxiety 30 min after drug treatment. The social interaction test consisted of 10 min of social encounters between two animals that received the same pharmacological treatment. The results are illustrated in FIG. 6.

Test [7] relates to mice. Description: Prepulse inhibition test in mice, PCP-induced PPI disruption. Type of test: in vivo. As to conditions: i.p. administration, FIG. 4. The source says:
FIG. 4. […] Mean values±S.E.M. (n=10-12/group) Student's t-test: vehicle vs. PCP-treated group (***p<0.001) Dunnett's test following ANOVA: PCP-treated vs. PCP+compound treated groups (#:p<0.05).
The startle reaction of a healthy rodents and humans to a strong acoustic stimulus is reduced by the prior presentation of a weak stimulus. The effect of the weak stimulus on the startle response has been termed prepulse inhibition (PPI). Reduced prepulse inhibition is a hallmark feature of attention-processing (sensorimotor gating) deficits in patients with schizophrenia and other psychotic disorders. Acute administration of phencyclidine (PCP), an antagonist of N-methyl D-aspartate (NMDA)-type glutamate receptors, disrupts PPI in rodents and this effect can be prevented by clinically effective antipsychotics. The results are illustrated in FIG. 4.

Where [8] appears, read: HEK 293 cells expressing GABAA α5, expressed as % of GABA EC50, read-out: α5 IC50.
Where [9] appears, read: HEK 293 cells expressing GABAA α1, expressed as % of GABA EC50, read-out: α1 IC50.

T2 sequence (P31644 32-462): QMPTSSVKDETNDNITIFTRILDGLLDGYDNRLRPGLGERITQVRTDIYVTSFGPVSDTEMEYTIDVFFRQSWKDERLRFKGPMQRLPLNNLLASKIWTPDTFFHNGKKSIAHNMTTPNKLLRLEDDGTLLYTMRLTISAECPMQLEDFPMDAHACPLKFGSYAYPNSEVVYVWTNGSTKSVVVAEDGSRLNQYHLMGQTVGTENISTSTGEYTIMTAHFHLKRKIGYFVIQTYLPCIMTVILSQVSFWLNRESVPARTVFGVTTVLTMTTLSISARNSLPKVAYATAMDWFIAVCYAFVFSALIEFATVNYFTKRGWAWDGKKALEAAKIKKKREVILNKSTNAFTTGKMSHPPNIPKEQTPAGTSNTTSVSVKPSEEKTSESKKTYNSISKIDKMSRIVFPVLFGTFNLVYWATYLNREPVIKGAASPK
T2 sequence (P47870 26-474 isoform P47870-1 partner limits assumed): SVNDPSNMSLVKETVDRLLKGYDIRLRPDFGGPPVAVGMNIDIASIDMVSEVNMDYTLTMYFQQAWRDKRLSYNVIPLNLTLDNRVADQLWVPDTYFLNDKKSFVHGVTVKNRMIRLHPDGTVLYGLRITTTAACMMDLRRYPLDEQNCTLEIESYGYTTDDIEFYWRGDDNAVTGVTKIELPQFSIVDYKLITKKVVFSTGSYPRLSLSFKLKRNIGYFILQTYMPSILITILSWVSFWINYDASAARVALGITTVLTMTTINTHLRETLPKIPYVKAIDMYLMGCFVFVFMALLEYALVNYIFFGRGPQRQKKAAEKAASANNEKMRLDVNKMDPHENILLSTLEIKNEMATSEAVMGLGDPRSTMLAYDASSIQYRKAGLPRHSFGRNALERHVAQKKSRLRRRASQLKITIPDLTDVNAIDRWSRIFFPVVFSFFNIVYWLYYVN
T2 sequence (P18507 40-475 partner): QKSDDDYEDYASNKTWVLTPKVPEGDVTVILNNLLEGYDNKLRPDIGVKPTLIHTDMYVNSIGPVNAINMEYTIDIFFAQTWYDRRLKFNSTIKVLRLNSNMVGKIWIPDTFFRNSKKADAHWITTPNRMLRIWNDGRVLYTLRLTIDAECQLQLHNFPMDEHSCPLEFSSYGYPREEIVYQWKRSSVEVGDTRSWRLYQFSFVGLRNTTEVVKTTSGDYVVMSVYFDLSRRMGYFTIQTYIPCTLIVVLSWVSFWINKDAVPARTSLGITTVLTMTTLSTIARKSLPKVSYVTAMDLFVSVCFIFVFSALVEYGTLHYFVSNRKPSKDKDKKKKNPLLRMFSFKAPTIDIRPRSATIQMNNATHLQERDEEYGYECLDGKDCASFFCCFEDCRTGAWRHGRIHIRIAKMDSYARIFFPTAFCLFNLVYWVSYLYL
T1 sequence (P47869 29-451): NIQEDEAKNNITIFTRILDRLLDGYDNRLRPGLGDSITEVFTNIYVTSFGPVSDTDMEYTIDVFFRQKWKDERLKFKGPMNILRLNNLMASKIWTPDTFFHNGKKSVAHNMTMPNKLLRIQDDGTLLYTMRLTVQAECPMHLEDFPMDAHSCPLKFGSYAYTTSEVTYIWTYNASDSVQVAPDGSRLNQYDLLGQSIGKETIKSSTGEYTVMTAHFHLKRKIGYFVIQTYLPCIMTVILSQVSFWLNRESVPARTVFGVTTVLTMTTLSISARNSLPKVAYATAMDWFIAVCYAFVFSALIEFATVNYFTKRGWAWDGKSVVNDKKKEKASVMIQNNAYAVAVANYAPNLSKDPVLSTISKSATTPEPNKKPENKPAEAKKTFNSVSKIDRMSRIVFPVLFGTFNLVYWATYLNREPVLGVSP
T1 sequence (P47870 26-474 isoform P47870-1 partner limits assumed): as the sequence (P47870 26-474 isoform P47870-1 partner limits assumed) above
T1 sequence (P18507 40-475 partner): as the sequence (P18507 40-475 partner) above
T3 sequence (P14867 28-456): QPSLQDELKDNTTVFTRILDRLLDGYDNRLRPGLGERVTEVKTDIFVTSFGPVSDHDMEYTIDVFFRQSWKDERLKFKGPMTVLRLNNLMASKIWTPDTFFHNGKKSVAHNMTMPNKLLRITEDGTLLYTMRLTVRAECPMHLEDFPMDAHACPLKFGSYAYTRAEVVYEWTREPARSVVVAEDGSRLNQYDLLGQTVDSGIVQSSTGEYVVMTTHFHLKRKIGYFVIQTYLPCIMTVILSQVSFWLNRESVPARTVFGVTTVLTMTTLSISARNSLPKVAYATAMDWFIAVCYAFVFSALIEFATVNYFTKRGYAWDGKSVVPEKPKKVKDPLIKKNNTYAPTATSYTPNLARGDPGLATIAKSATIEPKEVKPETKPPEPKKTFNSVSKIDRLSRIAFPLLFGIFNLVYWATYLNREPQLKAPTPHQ
T3 sequence (P47870 26-474 isoform P47870-1 partner limits assumed): as the sequence (P47870 26-474 isoform P47870-1 partner limits assumed) above
T3 sequence (P18507 40-475 partner): as the sequence (P18507 40-475 partner) above

Turning to `CC1=NN=C(c2sc3ccc(Cl)cc3c2C)c2cc3c(cc2C1)NC(=O)C(C)O3` (single isomer, unassigned; (-)) [Example 26, (−)-6-(5-Chloro-3-methyl-1-benzothiophen-2-yl)-3,9-dimethyl-1,10-dihydro[1,4]oxazino[3,2-h][2,3]benzodiazepin-2(3H)-one], the “Anxiolytic activity in Light-dark test (activity in the light compartment)” value in test [1] is listed as “Anxiolytic activity”.
`CC1=NN=C(c2sc3cccc(F)c3c2C)c2cc3c(cc2C1)NC(=O)C(C)O3` (centres unmarked) [Example 1, 6-(4-fluoro-3-methyl-1-benzothiophen-2-yl)-3,9-dimethyl-1,10-dihydro[1,4]oxazino[3,2-h][2,3]benzodiazepin-2(3H)-one] gave an EC50 in test [2] of 3500 nM. The figures for the IC50 in test [3] and in test [4] were 700 nM and over 10000 nM, respectively.
Turning to `CC1=NN=C(c2oc3ccc(O)cc3c2C)c2cc3c(cc2C1)NC(=O)C(C)O3` (centres unmarked) [Example 14, 6-(5-Hydroxy-3-methyl-1-benzofuran-2-yl)-3,9-dimethyl-1,10-dihydro[1,4]oxazino[3,2-h][2,3]benzodiazepin-2(3H)-one], it took 1000 nM to reach a half-maximal effect in test [2] (EC50). The values for the IC50 in test [3] and in test [4] were 430 nM and 13700 nM, respectively.
`CC1=NN=C(c2sc3ccc(Cl)cc3c2C)c2cc3c(cc2C1)NC(=O)C(C)O3` (centres unmarked) [Example 24, 6-(5-Chloro-3-methyl-1-benzothiophen-2-yl)-3,9-dimethyl-1,10-dihydro[1,4]oxazino[3,2-h][2,3]benzodiazepin-2(3H)-one]: the “Procognitive effect (discrimination index) in the object recognition model” value in test [5] was “Procognitive effects”.
`COc1ccc2oc(C3=NN=C(C)Cc4cc5c(cc43)OC(C)C(=O)N5)c(C)c2c1` (single isomer, unassigned; (+)) [Example 4, (+)-6-(5-Methoxy-3-methyl-1-benzofuran-2-yl)-3,9-dimethyl-1,10-dihydro[1,4]oxazino[3,2-h][2,3]benzodiazepin-2(3H)-one]: the “Procognitive effect (discrimination index) in the object recognition model” value in test [5] is given as “Procognitive effects”. Moreover, the “Anxiolytic activity in the social interaction model” value in test [6] is listed as “Anxiolytic activity”.
In turn, `CCc1ccc2oc(C3=NN=C(C)Cc4cc5c(cc43)OC(C)C(=O)N5)c(CC)c2c1` (centres unmarked) [Example 13, 6-(3,5-Diethyl-1-benzofuran-2-yl)-3,9-dimethyl-1,10-dihydro[1,4]oxazino[3,2-h][2,3]benzodiazepin-2(3H)-one] showed an EC50 in test [2] of 1100 nM. Also, the concentration for half-maximal inhibition (IC50) is 1300 nM in test [3] and over 10000 nM in test [4].
The compound `CC1=NN=C(c2sc3cc(Cl)c(F)cc3c2C)c2cc3c(cc2C1)NC(=O)C(C)O3` (centres unmarked) [Example 8, 6-(6-Chloro-5-fluoro-3-methyl-1-benzothiophen-2-yl)-3,9-dimethyl-1,10-dihydro[1,4]oxazino[3,2-h][2,3]benzodiazepin-2(3H)-one] gave an EC50 in test [2] of 1000 nM. Further, the values for the IC50 in test [3] and in test [4] were 3000 nM and over 10000 nM, respectively.
As to `CC1=NN=C(c2sc3cc(Cl)ccc3c2C)c2cc3c(cc2C1)NC(=O)C(C)O3` (racemic) [Example 5, 6-(6-Chloro-3-methyl-1-benzothiophen-2-yl)-3,9-dimethyl-1,10-dihydro[1,4]oxazino[3,2-h][2,3]benzodiazepin-2(3H)-one], the EC50 in test [2] was 1200 nM. Further, the values for the IC50 in test [3] (setting [8]) and in test [4] (setting [9]) were 900 nM and over 10000 nM, respectively.
As to `COc1ccc2oc(C3=NN=C(C)Cc4cc5c(cc43)OC(C)C(=O)N5)c(C)c2c1` (racemic) [Example 2, 6-(5-Methoxy-3-methyl-1-benzofuran-2-yl)-3,9-dimethyl-1,10-dihydro[1,4]oxazino[3,2-h][2,3]benzodiazepin-2(3H)-one], in test [2], the midpoint of the response, the EC50, lay at 800 nM. In addition, the IC50 in test [3] was 800 nM; in test [4] it was over 10000 nM.
The compound `CC1=NN=C(c2oc3ccc(Cl)cc3c2C)c2cc3c(cc2C1)NC(=O)C(C)O3` (centres unmarked) [Example 12, 6-(5-Chloro-3-methyl-1-benzofuran-2-yl)-3,9-dimethyl-1,10-dihydro[1,4]oxazino[3,2-h][2,3]benzodiazepin-2(3H)-one] gave an EC50 in test [2] of 1000 nM. Moreover, the IC50 in test [3] was 3000 nM; in test [4] it was over 10000 nM.
In the case of `CCc1c(C2=NN=C(C)Cc3cc4c(cc32)OC(C)C(=O)N4)sc2ccc(Cl)cc12` (racemic) [Example 9, 6-(5-Chloro-3-ethyl-1-benzothiophen-2-yl)-3,9-dimethyl-1,10-dihydro[1,4]oxazino[3,2-h][2,3]benzodiazepin-2(3H)-one], a half-maximal effect in test [2] (EC50) was put at 1000 nM. Further, the IC50 was 700 nM in test [3] (setting [8]) and over 10000 nM in test [4] (setting [9]).
`CC1=NN=C(c2sc3ccc(Cl)cc3c2C)c2cc3c(cc2C1)NC(=O)C(C)O3` (single isomer, unassigned; (+)) [Example 25, (+)-6-(5-Chloro-3-methyl-1-benzothiophen-2-yl)-3,9-dimethyl-1,10-dihydro[1,4]oxazino[3,2-h][2,3]benzodiazepin-2(3H)-one]: the “Effect in the PCP-induced PPI disruption model” value in test [7] is recorded as “Ameliorating effect”.

For orientation: EC50 means the concentration giving half of the maximal effect. Read a low EC50 as an effect from little substance. By IC50 is commonly meant the concentration needed to halve the response being measured.
